Experimental data: ChEMBL document CHEMBL1146153, “A metabolically stable tight-binding transition-state inhibitor of glyoxalase-I” (Bioorg Med Chem Lett, 2006); call rule not given here

What was measured:
[1] = Stability against equine kidney gamma-glutamyltranspeptidase mediated breakdown at pH 8.4 after 15 mins; type: ADME, tissue-based; conditions: pH 8.4, 0.25 h
Glyoxalase I = biological target: T1, Glyoxalase I (Saccharomyces cerevisiae S288c, UniProt P50107); experiment: Inhibition of yeast glyoxalase1
T1 sequence (P50107 whole entry): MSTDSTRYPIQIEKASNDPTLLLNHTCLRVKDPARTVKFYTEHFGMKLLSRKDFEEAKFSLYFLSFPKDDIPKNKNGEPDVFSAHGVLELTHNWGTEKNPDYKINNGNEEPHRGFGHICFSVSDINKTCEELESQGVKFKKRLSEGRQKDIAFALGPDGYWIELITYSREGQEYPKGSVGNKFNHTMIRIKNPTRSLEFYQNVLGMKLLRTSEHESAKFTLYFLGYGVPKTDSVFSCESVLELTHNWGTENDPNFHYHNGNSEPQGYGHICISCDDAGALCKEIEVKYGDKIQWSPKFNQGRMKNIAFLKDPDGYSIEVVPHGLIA

[2] = Stability against equine kidney gamma-glutamyltranspeptidase mediated breakdown at pH 8.4 after 15 hrs; type: ADME; conditions: pH 8.4, 15 h

Activity [1] | Ki (Glyoxalase I) | Stability [2] | Compound
Not Active |  |  | N[C@@H](CCC(=O)N[C@@H](CSCc1ccc(Br)cc1)C(=O)NCC(=O)O)C(=O)O
Not Active |  |  | N[C@@H](CCC(=O)N[C@@H](CSC(=O)N(O)c1ccc(Br)cc1)C(=O)NCC(=O)O)C(=O)O
 | 2190 nM | Stable | N[C@@H](CNC(=O)N[C@@H](CSC(=O)N(O)c1ccc(Br)cc1)C(=O)NCC(=O)O)C(=O)O
